Source: patent publication US6469028B1, “Synthesis and use of retinoid compounds having negative hormone and/or anatgonist activities” (Allergan, Inc., priority 1995, dated 2002)

What was measured:
RARγ = biological target: T1, RARγ (Homo sapiens, UniProt P13631); experiment: Transactivation in CV-1 cells, ΔMTV-TREp-Luc reporter; format: cell-based; parameters: expressed in transfected cells; host or cells: green monkey CV-1 cells; conditions: 10^−9 to 10^−6 M, 18 hours
T1 sequence (P13631 1-454): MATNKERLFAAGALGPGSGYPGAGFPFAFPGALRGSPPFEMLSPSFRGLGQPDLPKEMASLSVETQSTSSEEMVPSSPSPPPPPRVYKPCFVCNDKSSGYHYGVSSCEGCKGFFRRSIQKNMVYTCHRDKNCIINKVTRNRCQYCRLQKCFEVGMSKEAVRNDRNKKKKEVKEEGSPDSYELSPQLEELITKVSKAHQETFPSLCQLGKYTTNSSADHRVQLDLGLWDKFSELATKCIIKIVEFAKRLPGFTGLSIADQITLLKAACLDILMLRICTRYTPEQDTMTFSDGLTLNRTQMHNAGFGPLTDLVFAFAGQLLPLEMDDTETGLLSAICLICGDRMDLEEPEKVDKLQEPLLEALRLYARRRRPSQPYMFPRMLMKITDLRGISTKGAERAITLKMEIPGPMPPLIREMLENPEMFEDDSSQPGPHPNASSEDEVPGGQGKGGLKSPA

[1] = test system: RAR-γ-VP-16 with ER-RXR-α
[2] = test system: retinal pigment epithelium (RPE) cells; experiment: Example 19: proliferation of primary retinal pigment epithelium cultures; format: cell-based, human
Protocol: Primary cultures of human retinal pigment epithelium (RPE) were established according to the method described by Campochiaro et al. in Invest. Opthal & Vis. Sci. 32:65 (1991). 5×10^4 cells were plated in 16-mm wells of 24-well multiwell plates in DMEM (Gibco) containing 5% FBS. […] Cells were fed with fresh media containing the appropriate concentrations of these compounds every two days for a total of five days of treatment. Cells were removed from the plates by gentle digestion with trypsin and the number of cells was counted with an electronic cell counter.
AGN 193109 was tested for its ability to potentiate the anti-proliferative effect of 13-cis retinoic acid (13-cis RA) in primary RPE cultures using conditions and techniques to measure RPE cell proliferation described above. […] More particularly, 13-cis RA is useful in the treatment of several disease states, including acne (Peck et al. N. Engl. J. Med. 300:329 (1977); Jones et al. Br. J. Dermatol. 108:333 (1980)), and squamous cell carcinoma of the skin and cervix in combination treatment with interferon 2α (Lippman et al. J. Natl. Cancer Inst. 84:241 (1992); Moore et al. Seminars in Hematology 31:31 (1994)).
We next tested the ability of AGN 193109 to potentiate the activities of other nuclear receptor hormones in primary RPE cell cultures. Dexamethasone, a synthetic glucocorticoid receptor agonist, is one member of a class of compounds that have been used clinically for their potent anti-inflammatory and immunosuppressive properties. Thyroid hormone (T3; […]) is a natural thyroid hormone receptor agonist used primarily for hormone replacement therapy in the treatment of hypothyroidism.

RARα = biological target: T2, RARα (Homo sapiens, UniProt P10276); experiment: Transactivation in CV-1 cells, ΔMTV-TREp-Luc reporter; format: cell-based; parameters: expressed in transfected cells; host or cells: green monkey CV-1 cells; conditions: 10^−9 to 10^−6 M, 18 hours
T2 sequence (P10276 1-462): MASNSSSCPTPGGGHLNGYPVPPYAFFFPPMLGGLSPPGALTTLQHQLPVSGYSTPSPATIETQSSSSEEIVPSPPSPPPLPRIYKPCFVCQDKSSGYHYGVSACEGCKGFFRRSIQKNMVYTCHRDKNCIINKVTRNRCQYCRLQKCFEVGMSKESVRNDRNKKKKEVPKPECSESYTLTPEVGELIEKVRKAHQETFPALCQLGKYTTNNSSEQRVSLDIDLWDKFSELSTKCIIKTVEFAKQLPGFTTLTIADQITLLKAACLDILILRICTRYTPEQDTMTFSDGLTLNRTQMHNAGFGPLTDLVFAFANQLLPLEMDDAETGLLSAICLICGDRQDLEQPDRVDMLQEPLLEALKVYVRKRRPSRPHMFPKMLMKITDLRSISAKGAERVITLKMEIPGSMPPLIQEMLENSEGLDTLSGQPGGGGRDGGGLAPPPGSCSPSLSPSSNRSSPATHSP
Protocol: AGN 193109 was also tested for its ability to transactivate RARs in CV-1 cells transiently cotransfected with RAR expression vectors and a retinoid responsive reporter gene construct. Receptor expression vectors pRShRAR-α (Giguere et al. Nature 330:624 (1987)), pRShRAR-β (Benbrook et al. Nature 333:669 (1988)) and pRShRAR-γ (Ishikawa et al. Mol. Endocrinol. 4:837 (1990)) were separately cotransfected with the ΔMTV-TREp-Luc reporter plasmid. Use of this luciferase reporter plasmid has been disclosed by Heyman et al. in Cell 68:397 (1992). The ΔMTV-TREp-Luc plasmid is essentially identical to the ΔMTV-TREp-CAT reporter construct described by Umesono et al. in Nature 336:262 (1988), except that the chloramphenicol acetyltransferase (CAT) reporter gene was substituted by a polynucleotide sequence encoding firefly luciferase. Transfection of green monkey CV-1 cells was carried out using the calcium phosphate coprecipitation method described in Molecular Cloning: A Laboratory Manual (Sambrook et al. eds. Cold Spring Harbor Lab Publ. 1989). CV-1 cells were plated at a density of 4×10^4/well in 12 well multiwell plates and transiently transfected with a calcium phosphate precipitate containing 0.7 μg of reporter plasmid and 0.1 μg of receptor plasmid according to standard laboratory procedures. […]

## Cc1ccc(C2=CCC(C)(C)c3ccc(C#Cc4ccc(C(=O)O)cc4)cc32)cc1 [Compound 60, 4-[(5,6-dihydro-5,5-dimethyl-8-(4-methylphenyl)-2-naphthalenyl)ethynyl]benzoic acid]
RARγ
  EC50 (nM) RAR-γ: No Activity
[1]; AGN 193109 at 10^−8−10^−6 M (maximal inhibition)
  luciferase activity readings: approximately 16,000 rlu
[1]; cells cotransfected with ER-RXR-α and RAR-γ-VP-16
  concentration of maximal inhibition of luciferase activity: approximately 10^−8 M
[1]; no other retinoid added, 18 hours
  luciferase activity of triple transfectants: dose dependent decrease in luciferase activity
[2]; 10^−10 M ATRA with 10^−7 M AGN 193109 equals 10^−8 M ATRA alone
  enhancement of the antiproliferative activity of ATRA: approximately 100 fold
[2]; AGN 193109 10^−8 or 10^−6M with 13-cis RA 10^−12 to 10^−6M
  potency of 13-cis RA in repression of RPE cell proliferation: dramatically increased the potency of 13-cis RA
[2]; AGN 193109 alone, 10^−10 to 10^−6 M
  growth rate of the RPE cells: did not substantially alter the growth rate of the RPE cells
[2]; dexamethasone 10^−11 to 10^−6M with 10^−8 or 10^−6M AGN 193109
  RPE cell proliferation: repressed RPE cell proliferation to an extent that approximated the inhibition caused by treatment with ATRA
[2]; thyroid hormone 10^−11 to 10^−6M with AGN 193109 10^−8 or 10^−6M
  RPE cell proliferation: inhibited RPE cell proliferation in a thyroid hormone dependent manner
RARα
  EC50 (nM) RAR-α: No Activity
